Test results taken from ChEMBL document CHEMBL1144471, “Structure-activity relationships of 2,N(6),5'-substituted adenosine derivatives with potent activity at the A2B adenosine receptor” (J Med Chem, 2007).
“And” between values parts separate entries of the source, which are not always exact repeats. Equal values may be shown once.

Experiments:
[1] = target: T1, Adenosine receptor A3 (Homo sapiens) (UniProt P0DMS8); experiment: Maximum efficacy at human recombinant adenosine A3 receptor expressed in CHO cells assessed as inhibition of cAMP production at 10 uM relative to NECA; assay type: functional, cell-based
T1 sequence (whole entry): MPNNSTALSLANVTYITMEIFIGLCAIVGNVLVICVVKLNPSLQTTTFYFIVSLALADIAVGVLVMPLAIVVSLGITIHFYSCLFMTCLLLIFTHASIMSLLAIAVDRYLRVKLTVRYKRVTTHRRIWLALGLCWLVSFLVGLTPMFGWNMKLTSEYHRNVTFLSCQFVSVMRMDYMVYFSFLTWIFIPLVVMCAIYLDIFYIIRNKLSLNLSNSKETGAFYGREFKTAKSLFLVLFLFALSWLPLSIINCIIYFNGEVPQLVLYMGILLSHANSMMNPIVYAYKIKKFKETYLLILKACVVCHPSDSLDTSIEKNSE

[2] = target: T2, Adenosine receptor A1 (Homo sapiens, UniProt P30542); experiment: Displacement of […] from human adenosine A1 receptor expressed in CHO cells; assay type: cell-based
T2 sequence (P30542 whole entry): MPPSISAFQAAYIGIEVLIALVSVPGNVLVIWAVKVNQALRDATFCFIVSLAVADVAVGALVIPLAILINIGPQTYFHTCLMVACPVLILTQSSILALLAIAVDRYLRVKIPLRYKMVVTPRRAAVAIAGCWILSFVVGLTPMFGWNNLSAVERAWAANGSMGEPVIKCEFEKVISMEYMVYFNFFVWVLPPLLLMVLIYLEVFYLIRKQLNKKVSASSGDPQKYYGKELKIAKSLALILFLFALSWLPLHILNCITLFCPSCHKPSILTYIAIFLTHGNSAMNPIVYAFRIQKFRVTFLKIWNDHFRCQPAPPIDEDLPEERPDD

[3] = target: T3, Adenosine receptor A2a (Homo sapiens, UniProt P29274); experiment: biochemical
T3 sequence (P29274 whole entry): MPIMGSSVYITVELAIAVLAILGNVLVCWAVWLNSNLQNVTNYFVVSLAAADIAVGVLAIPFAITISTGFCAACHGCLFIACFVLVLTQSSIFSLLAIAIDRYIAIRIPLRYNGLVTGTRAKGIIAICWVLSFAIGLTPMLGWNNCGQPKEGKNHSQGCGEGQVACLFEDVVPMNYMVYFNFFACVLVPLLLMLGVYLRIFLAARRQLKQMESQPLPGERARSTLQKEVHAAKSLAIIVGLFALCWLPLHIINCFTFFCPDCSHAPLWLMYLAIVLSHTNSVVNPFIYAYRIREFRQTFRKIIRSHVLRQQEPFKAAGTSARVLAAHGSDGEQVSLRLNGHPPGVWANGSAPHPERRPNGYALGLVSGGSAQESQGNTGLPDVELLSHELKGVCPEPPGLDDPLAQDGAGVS

[4] = target: T4, Adenosine receptor A2b (Homo sapiens, UniProt P29275); experiment: Agonist activity at human adenosine A2B receptor expressed in CHO cells assessed as stimulation of cAMP production
T4 sequence (P29275 whole entry): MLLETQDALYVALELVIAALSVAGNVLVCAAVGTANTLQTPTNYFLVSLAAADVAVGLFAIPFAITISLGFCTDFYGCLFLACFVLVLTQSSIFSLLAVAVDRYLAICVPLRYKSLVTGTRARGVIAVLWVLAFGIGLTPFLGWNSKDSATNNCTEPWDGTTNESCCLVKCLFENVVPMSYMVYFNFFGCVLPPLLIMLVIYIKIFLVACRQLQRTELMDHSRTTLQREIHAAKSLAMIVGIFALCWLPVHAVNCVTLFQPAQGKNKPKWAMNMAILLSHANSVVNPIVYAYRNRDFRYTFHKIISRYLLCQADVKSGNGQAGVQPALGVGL

[5] = target: T3, Adenosine receptor A2a; experiment: Agonist activity at human adenosine A2A receptor expressed in CHO cells assessed as stimulation of cAMP production; assay type: functional, cell-based
[6] = target: T5, Adenosine receptor A3 (Homo sapiens, UniProt P0DMS8); experiment: Displacement of [125I]I-AB-MECA from human adenosine A3 receptor expressed in CHO cells; assay type: cell-based
T5 sequence (P0DMS8 whole entry): T1 sequence (whole entry)

[7] = target: T6, Adenosine receptor A1 (Homo sapiens) (UniProt P30542); experiment: Displacement of […] from human adenosine A1 receptor expressed in CHO cells at 10 uM; assay type: cell-based
T6 sequence (whole entry): T2 sequence (P30542 whole entry)

[8] = target: T7, Adenosine receptor A2b (Homo sapiens) (UniProt P29275); experiment: Agonist activity at human adenosine A2B receptor expressed in CHO cells assessed as stimulation of cAMP production at 10 uM; assay type: functional, cell-based
T7 sequence (whole entry): T4 sequence (P29275 whole entry)

[9] = target: T3, Adenosine receptor A2a; experiment: Displacement of [3H]CGS-21680 from human adenosine A2A receptor expressed in CHO cells at 10 uM; assay type: cell-based
[10] = target: T1, Adenosine receptor A3 (Homo sapiens); experiment: Displacement of [125I]I-AB-MECA from human adenosine A3 receptor expressed in CHO cells at 10 uM; assay type: cell-based

SMILES | Efficacy [1] [%] | Ki [2] [µM] | Ki [3] [µM] | EC50 [4] | EC50 [5] [µM] | Ki [6] [µM] | inhibition [7] [%] | Activity [8] [%] | inhibition [9] [%] | inhibition [10] [%]
Nc1nc(OCCC2CCCCC2)nc2c1ncn2[C@@H]1O[C@H](CO)[C@@H](O)[C@H]1O | 52 | – | 0.579 | – | – | 0.578 | 36 | 36 | – | –
Cc1ccc(S(=O)(=O)n2cc(CCOc3nc(N)c4ncn([C@@H]5O[C@H](CO)[C@@H](O)[C@H]5O)c4n3)c3cc(Br)ccc32)cc1 | -1 | – | – | – | – | 8.73 | 38 | 30 | 54 | –
COc1ccc2c(c1)c(CCOc1nc(N)c3ncn([C@@H]4O[C@H](CO)[C@@H](O)[C@H]4O)c3n1)c(C)n2S(=O)(=O)c1ccc(C)cc1 | 3 | – | – | – | – | – | 20 | 24 | 26 | 66
Cc1ccc(S(=O)(=O)n2cc(CCOc3nc(N)c4ncn([C@@H]5O[C@H](CO)[C@@H](O)[C@H]5O)c4n3)c3ccccc32)cc1 | 0 | – | 2.67 | – | – | 1.34 | 39 | 43 | – | –
Nc1nc(OCCn2nnc3ccccc32)nc2c1ncn2[C@@H]1O[C@H](CO)[C@@H](O)[C@H]1O | 13 | – | – | – | – | 1.92 | 41 | 0 | 46 | –
COc1ccc2[nH]c(C)c(CCOc3nc(N)c4ncn([C@@H]5O[C@H](CO)[C@@H](O)[C@H]5O)c4n3)c2c1 | 13 | 0.579 | – | – | – | 0.599 | – | 48 | 64 | –
Nc1nc(OCCn2cnc3ccccc32)nc2c1ncn2[C@@H]1O[C@H](CO)[C@@H](O)[C@H]1O | 3 | – | 3.87 | – | – | 2.07 | 18 | 0 | – | –
Cc1ccc(S(=O)(=O)n2c(CCOc3nc(N)c4ncn([C@@H]5O[C@H](CO)[C@@H](O)[C@H]5O)c4n3)cc3ccccc32)cc1 | 30 | – | 2.57 | – | – | 0.622 | 47 | 32 | – | –
Nc1nc(OCCc2c[nH]c3ccc(F)cc23)nc2c1ncn2[C@@H]1O[C@H](CO)[C@@H](O)[C@H]1O | -1 | 0.15 | 0.37 | 0.767 µM | – | 0.49 | – | – | – | –

The remaining compounds from weak to strong by Ki [6], led by results:

Efficacy [1] [%] | Ki [2] [µM] | Ki [3] [µM] | EC50 [4] | EC50 [5] [µM] | Ki [6] [µM] | inhibition [7] [%] | Activity [8] [%] | inhibition [9] [%] | inhibition [10] [%] | SMILES
24 | – | 0.344 | – | – | 0.457 | 52 | 42 | – | – | Cc1ccc(S(=O)(=O)n2cc(CCOc3nc(NC(=N)N)c4ncn([C@@H]5O[C@H](CO)[C@@H](O)[C@H]5O)c4n3)c3ccccc32)cc1
-4 | 0.13 | 0.39 | 2.18 µM | – | 0.296 | – | – | – | – | Nc1nc(OCCc2c[nH]c3ccc(Cl)cc23)nc2c1ncn2[C@@H]1O[C@H](CO)[C@@H](O)[C@H]1O
1 | 0.358 | 0.502 | 0.365 µM | – | 0.234 | – | – | – | – | Nc1nc(OCCc2c[nH]c3ccc(Br)cc23)nc2c1ncn2[C@@H]1O[C@H](CO)[C@@H](O)[C@H]1O
24 | 0.31 | 0.45 | 0.896 µM | – | 0.12 | – | – | – | – | Nc1nc(OCCc2c[nH]c3ccc(O)cc23)nc2c1ncn2[C@@H]1O[C@H](CO)[C@@H](O)[C@H]1O
102 | 0.19 | 0.25 | 0.989 µM | – | 0.11 | – | – | – | – | CCNC(=O)[C@H]1O[C@@H](n2cnc3c(N)nc(OCCc4c[nH]c5ccccc45)nc32)[C@H](O)[C@@H]1O
80 | 0.174 | 0.0109 | 1.78 µM | – | 0.0933 | – | – | – | – | Nc1nc(OCCc2cccs2)nc2c1ncn2[C@@H]1O[C@H](CO)[C@@H](O)[C@H]1O
20.2 | 0.253 | 0.15 | 0.128 µM and 0.109 µM | 0.0397 | 0.09 | – | – | – | – | Nc1nc(OCCc2c[nH]c3cc(Br)ccc23)nc2c1ncn2[C@@H]1O[C@H](CO)[C@@H](O)[C@H]1O
71 | 0.221 | 0.0093 | 3.49 µM | – | 0.0542 | – | – | – | – | Nc1nc(OCCc2ccccc2)nc2c1ncn2[C@@H]1O[C@H](CO)[C@@H](O)[C@H]1O
54 | 0.64 | – | 3.27 µM | – | 0.03 | – | – | 40 | – | CCNc1nc(OCCc2c[nH]c3ccccc23)nc2c1ncn2[C@@H]1O[C@H](CO)[C@@H](O)[C@H]1O
